Earlier results in US20250099634A1, “METHOD OF TREATING CANCER” (Novartis AG, priority 2023, published 2025).

System: G1-2 midgut and pancreatic NET
Settings: 120 mg/month, cited from earlier work

CC(C)[C@@H]1NC(=O)[C@H](CCCCN)NC(=O)[C@@H](Cc2c[nH]c3ccccc23)NC(=O)[C@H](Cc2ccc(O)cc2)NC(=O)[C@@H](NC(=O)[C@H](N)Cc2ccc3ccccc3c2)CSSC[C@@H](C(=O)N[C@H](C(N)=O)[C@@H](C)O)NC1=O [lanreotide]
HR for progression or death with lanreotide vs. placebo (95% CI 0.30 to 0.73): 0.47 | median PFS: not reached
